Experimental data taken from patent publication US11427574B2, “Compounds for treating Rac-GTPase mediated disorder” (Children's Medical Center Corporation, priority 2015, dated 2022).

Experiments:
[1] = system: Rac; assay: Rac activation pull down assay (PAK beads, Western blot); format: cell-based; conditions: Western Blot (FIG. 2a)
Experimental: (§1) To determine which of these compounds should be further pursued, a biochemical pull down assay was performed to confirm specific inhibition of Rac activation indicated by disruption of the interaction between Rac and […]. The assay initially required treatment of cells followed by pull down and analysis with Western blot. The cells were first starved in serum free media for 2 hours. They were then re-suspended in serum-containing medium and inhibitors added at desired concentration. Following incubation for the desired length of time, the cells were pelleted and lysed with Magnesium Lysis Buffer (Millipore Mg^2+ lysis/wash buffer). The Rac protein and any bound proteins were then collected with Pak Beads (Millipore Rac/cdc42 Assay Reagent (PAK-1 PBD, agarose). Bound protein was subsequently removed with lysis buffer and subject to Western Blot analysis.
Compound 1 was identified as a lead compound from the above analyses. […] The Western Blot and pull down analyses are also shown for the compound DMSO, and the compound NSC23776, which is a known inhibitor of Rac1 binding and of Rac activation by Rac-specific RhoGEFs.

[2] = system: normal bone marrow hematopoietic and progenitor cells; assay: Colony forming unit assay (CFU assay) for toxicity; format: cell-based; conditions: semi-solid media, different doses
Experimental: Compound 1 was tested for toxicity in a colony forming unit assay (CFU assay), which was performed by plating normal bone marrow hematopoietic and progenitor cells in semi-solid media supplemented with different doses of Compound 1, NSC23766, and DMSO.
Compound 2 was also tested for toxicity in a colony forming unit assay (CFU assay), which was performed by plating normal bone marrow hematopoietic and progenitor cells in semi-solid media supplemented with different doses of Compound 2, NSC23766, and DMSO.

[3] = molecular target: T1, CDC42 (Homo sapiens, UniProt P60953); assay: CDC42 activation pull down assay (Western blot); format: cell-based; conditions: Western Blot (FIG. 10a)
T1 construct: endogenous in cells
Experimental: as §1
Compound 1 was tested to evaluate its effect on CDC42 activation. In this case, beads for the immunoprecipitation were coated with a CDC42 effector domain. […] The Western Blot and pull down analyses are also shown for DMSO and […].

[4] = molecular target: Tiam1-Rac complex (Homo sapiens, UniProt P63000); assay: Homologous time resolved fluorescence (HTRF) binding assay
Experimental: Compound 1 was tested for its efficacy in binding with Rac1 in two independent binding assays, i.e., 2D NMR spectroscopy and Homologous time resolved fluorescence assay (HTRF).
In the 2D NMR assay, samples containing 50 μM Rac1 and 250 μM or 400 μM Compound 1 were used.
Compound 2 was tested for its efficacy in binding with Rac1 in two independent binding assays, i.e., 2D NMR spectroscopy and Homologous time resolved fluorescence assay (HTRF).
In the 2D NMR assay, a sample containing 50 μM Rac1 and 250 μM Compound 2 was used.

[5] = molecular target: ABL1 (Homo sapiens, UniProt P00519); assay: Kinase screening; format: biochemical
Experimental: (§2) Compound 1 was tested for its efficacy in inhibiting activities of 40 kinases and binding with 12 GPCRs both as an antagonist and an agonist.

[6] = molecular target: CDC42 BPA (MRCKA) (Homo sapiens, UniProt Q5VT25); assay: Kinase screening; format: biochemical
Experimental: as §2

[7] = molecular target: CDK5/p25 (Homo sapiens, UniProt Q00535); assay: Kinase screening; format: biochemical
Experimental: as §2

[8] = molecular target: EGFR (ErbB1) (Homo sapiens, UniProt P00533); assay: Kinase screening; format: biochemical
Experimental: as §2

[9] = molecular target: FLT3 (Homo sapiens, UniProt P36888); assay: Kinase screening; format: biochemical
Experimental: as §2

[10] = molecular target: FRAP1 (mTOR) (Homo sapiens, UniProt P42345); assay: Kinase screening; format: biochemical
Experimental: as §2

[11] = molecular target: IGF1R (Homo sapiens, UniProt P08069); assay: Kinase screening; format: biochemical
Experimental: as §2

[12] = molecular target: LIMK1 (Homo sapiens, UniProt P53667); assay: Kinase screening; format: biochemical
Experimental: as §2

[13] = molecular target: LIMK2 (Homo sapiens, UniProt P53671); assay: Kinase screening; format: biochemical
Experimental: as §2

[14] = molecular target: MAP3K2 (MEKK2) (Homo sapiens, UniProt Q9Y2U5); assay: Kinase screening; format: biochemical
Experimental: as §2

[15] = molecular target: MAPK8 (JNK1) (Homo sapiens, UniProt P45983); assay: Kinase screening; format: biochemical
Experimental: as §2

[16] = molecular target: MAPK9 (JNK2) (Homo sapiens, UniProt P45984); assay: Kinase screening; format: biochemical
Experimental: as §2

[17] = molecular target: PAK2 (PAK65) (Homo sapiens, UniProt Q13177); assay: Kinase screening; format: biochemical
Experimental: as §2

[18] = molecular target: PAK3 (Homo sapiens, UniProt O75914); assay: Kinase screening; format: biochemical
Experimental: as §2

[19] = molecular target: PAK4 (Homo sapiens, UniProt O96013); assay: Kinase screening; format: biochemical
Experimental: as §2

[20] = molecular target: PAK6 (Homo sapiens, UniProt Q9NQU5); assay: Kinase screening; format: biochemical
Experimental: as §2

[21] = molecular target: PAK7 (KIAA1264) (Homo sapiens, UniProt Q9P286); assay: Kinase screening; format: biochemical
Experimental: as §2

[22] = molecular target: PDGFRA (PDGFR alpha) (Homo sapiens, UniProt P16234); assay: Kinase screening; format: biochemical
Experimental: as §2

[23] = molecular target: PIK3C2A (PI3K-C2 alpha) (Homo sapiens, UniProt O00443); assay: Kinase screening; format: biochemical
Experimental: as §2

[24] = molecular target: PIK3C3 (hVPS34) (Homo sapiens, UniProt Q8NEB9); assay: Kinase screening; format: biochemical
Experimental: as §2

[25] = molecular target: PIK3CA/PIK3R1 (p110 alpha/p85 alpha) (Homo sapiens, UniProt P42336); assay: Kinase screening; format: biochemical
Experimental: as §2

[26] = molecular target: ROCK1 (Homo sapiens, UniProt Q13464); assay: Kinase screening; format: biochemical
Experimental: as §2

[27] = molecular target: ROCK2 (Homo sapiens, UniProt O75116); assay: Kinase screening; format: biochemical
Experimental: as §2

[28] = molecular target: SYK (Homo sapiens, UniProt P43405); assay: Kinase screening; format: biochemical
Experimental: as §2

T1 sequence (P60953 whole entry): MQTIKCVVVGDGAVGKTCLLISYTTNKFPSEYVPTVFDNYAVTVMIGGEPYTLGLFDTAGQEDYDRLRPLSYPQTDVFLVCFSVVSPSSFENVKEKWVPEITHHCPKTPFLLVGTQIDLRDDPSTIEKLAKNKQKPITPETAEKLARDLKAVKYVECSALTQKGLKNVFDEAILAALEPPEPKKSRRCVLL
Chain of EGFR (ErbB1) (P00533 25-1210, species assumed): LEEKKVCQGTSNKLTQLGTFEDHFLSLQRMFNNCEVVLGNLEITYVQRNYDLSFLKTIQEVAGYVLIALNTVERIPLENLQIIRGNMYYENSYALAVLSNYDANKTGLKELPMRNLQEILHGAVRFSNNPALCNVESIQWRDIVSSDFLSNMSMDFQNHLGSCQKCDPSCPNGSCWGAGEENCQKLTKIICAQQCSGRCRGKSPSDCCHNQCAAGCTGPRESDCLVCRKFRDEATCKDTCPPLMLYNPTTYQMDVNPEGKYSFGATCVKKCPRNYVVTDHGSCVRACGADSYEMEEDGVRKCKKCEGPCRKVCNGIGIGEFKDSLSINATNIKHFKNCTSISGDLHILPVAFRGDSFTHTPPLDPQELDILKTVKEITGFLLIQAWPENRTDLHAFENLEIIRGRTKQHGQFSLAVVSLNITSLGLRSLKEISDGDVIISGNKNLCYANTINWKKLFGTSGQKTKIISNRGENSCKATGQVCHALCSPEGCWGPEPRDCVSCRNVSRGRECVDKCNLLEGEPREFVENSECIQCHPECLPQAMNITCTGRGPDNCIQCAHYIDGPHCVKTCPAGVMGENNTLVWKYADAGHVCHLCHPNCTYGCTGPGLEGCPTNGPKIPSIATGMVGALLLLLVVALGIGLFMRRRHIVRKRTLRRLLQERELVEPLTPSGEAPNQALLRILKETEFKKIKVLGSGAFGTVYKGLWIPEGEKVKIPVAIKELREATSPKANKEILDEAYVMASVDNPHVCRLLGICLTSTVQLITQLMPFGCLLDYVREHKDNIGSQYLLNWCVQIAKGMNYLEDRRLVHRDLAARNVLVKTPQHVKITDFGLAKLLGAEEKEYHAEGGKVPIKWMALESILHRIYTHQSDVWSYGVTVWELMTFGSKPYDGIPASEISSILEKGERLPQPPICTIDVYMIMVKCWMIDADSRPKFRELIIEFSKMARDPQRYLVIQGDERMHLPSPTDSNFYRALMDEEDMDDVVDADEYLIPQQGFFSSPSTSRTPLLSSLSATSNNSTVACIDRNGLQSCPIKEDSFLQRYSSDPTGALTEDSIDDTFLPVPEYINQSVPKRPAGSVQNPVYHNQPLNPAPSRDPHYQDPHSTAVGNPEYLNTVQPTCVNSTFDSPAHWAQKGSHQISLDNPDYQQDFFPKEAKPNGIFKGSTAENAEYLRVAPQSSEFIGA
Chain of ROCK2 (O75116 whole entry, species assumed): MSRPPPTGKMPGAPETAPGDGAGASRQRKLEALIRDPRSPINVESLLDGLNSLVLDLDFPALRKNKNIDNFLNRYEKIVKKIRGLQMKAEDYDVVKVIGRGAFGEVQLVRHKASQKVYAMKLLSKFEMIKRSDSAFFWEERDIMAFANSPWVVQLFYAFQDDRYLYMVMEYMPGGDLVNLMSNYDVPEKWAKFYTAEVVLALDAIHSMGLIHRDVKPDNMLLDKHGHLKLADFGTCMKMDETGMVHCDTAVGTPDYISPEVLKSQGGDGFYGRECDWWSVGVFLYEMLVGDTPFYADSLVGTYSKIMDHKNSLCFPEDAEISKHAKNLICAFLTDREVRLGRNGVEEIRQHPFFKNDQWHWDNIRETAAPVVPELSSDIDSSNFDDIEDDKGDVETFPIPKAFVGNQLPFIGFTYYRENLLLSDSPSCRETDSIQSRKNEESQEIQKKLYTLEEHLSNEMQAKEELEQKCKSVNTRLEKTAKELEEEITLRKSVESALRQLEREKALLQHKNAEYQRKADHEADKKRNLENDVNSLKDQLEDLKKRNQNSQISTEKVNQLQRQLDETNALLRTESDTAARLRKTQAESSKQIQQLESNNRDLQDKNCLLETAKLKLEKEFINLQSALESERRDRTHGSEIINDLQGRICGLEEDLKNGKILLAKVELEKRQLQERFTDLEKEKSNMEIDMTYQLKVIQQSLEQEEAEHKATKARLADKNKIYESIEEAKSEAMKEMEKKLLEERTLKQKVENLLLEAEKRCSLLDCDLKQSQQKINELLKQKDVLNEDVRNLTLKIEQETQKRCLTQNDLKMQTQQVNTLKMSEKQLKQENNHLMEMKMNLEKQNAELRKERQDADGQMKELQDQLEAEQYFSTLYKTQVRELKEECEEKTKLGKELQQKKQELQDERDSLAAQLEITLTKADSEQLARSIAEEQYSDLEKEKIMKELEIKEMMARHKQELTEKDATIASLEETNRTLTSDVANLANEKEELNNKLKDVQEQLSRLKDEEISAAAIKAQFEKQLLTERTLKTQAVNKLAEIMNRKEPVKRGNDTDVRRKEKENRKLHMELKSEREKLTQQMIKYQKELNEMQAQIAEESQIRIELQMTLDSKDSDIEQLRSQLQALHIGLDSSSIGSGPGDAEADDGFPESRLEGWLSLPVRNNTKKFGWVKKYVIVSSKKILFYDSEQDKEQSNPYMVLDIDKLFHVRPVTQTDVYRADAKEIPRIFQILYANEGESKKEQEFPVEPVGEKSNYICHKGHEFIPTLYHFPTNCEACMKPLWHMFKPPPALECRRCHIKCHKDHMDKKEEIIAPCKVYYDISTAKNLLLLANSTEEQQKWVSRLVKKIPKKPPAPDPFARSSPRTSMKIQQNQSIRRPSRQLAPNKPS
Chain of PAK4 (O96013 whole entry, species assumed): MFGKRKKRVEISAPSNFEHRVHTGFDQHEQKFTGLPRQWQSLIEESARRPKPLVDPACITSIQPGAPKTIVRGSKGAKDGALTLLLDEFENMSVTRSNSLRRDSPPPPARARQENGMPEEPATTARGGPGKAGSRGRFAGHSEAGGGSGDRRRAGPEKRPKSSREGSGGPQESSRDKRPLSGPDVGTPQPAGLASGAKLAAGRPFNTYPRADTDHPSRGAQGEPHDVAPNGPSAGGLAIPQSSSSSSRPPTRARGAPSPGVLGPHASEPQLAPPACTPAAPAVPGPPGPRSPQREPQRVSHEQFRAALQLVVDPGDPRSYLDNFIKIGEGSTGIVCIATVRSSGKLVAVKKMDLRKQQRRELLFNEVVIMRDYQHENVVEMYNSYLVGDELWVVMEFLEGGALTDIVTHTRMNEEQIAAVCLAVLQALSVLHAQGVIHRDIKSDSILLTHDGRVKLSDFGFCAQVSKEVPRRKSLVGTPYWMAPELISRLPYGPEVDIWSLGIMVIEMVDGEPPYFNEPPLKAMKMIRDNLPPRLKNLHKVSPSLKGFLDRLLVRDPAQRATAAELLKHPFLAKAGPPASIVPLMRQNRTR
Chain of PAK3 (O75914 whole entry, species assumed): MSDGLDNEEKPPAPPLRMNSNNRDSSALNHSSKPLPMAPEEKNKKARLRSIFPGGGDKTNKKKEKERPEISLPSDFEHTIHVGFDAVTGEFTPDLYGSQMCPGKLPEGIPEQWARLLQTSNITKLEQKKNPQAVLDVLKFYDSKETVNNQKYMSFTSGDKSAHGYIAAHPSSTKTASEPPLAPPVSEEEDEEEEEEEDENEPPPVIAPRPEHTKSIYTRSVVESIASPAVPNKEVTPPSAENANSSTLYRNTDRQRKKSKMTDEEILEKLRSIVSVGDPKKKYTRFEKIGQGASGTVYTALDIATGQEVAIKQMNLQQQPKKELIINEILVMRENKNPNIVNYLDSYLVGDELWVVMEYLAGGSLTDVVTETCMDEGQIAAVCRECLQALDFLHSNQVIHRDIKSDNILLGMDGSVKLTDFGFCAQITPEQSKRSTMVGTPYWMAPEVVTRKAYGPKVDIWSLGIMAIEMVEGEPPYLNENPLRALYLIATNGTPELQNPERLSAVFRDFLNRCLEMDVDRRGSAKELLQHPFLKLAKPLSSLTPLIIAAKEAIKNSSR
Chain of CDK5/p25 (Q00535 whole entry, species assumed): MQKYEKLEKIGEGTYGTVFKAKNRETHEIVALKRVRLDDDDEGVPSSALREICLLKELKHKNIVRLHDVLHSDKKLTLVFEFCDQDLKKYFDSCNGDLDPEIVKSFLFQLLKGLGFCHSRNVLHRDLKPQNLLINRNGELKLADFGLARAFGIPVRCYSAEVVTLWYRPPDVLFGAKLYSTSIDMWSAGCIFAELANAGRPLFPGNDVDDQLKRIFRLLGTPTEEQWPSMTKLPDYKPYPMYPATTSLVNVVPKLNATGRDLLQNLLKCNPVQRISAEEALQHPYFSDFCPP
Chain of CDK5/p25 (Q15078 99-307 partner limits assumed, species assumed): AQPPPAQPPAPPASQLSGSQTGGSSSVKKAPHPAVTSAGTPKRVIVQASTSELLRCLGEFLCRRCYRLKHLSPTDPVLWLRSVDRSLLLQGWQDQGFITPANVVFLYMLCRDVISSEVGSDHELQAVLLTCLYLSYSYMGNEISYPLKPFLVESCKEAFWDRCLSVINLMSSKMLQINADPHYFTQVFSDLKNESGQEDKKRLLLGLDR
Chain of PAK2 (PAK65) (Q13177 whole entry, species assumed): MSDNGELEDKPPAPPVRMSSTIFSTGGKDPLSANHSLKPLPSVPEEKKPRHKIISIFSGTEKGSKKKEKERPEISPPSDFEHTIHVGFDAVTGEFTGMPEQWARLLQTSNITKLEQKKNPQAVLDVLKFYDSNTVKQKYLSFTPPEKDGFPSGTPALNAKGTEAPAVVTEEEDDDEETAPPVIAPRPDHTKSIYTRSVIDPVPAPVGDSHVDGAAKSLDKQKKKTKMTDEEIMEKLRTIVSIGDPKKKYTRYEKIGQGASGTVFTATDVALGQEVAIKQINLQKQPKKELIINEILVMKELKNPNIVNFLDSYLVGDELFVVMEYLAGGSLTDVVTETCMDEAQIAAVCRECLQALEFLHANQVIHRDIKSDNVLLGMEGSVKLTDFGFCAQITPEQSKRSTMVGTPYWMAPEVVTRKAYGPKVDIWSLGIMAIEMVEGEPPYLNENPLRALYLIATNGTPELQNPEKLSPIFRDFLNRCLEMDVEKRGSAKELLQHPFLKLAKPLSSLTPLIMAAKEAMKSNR

- total CDC42 levels [3]: no significant effect
- CDC42 activation ([3]; pull down): dose dependent reduction
- binding in the HTRF assay [4]: no binding was observed
- inhibition percentage [5]: 0.6 percentage
- inhibition percentage [6]: 2.8 percentage
- inhibition percentage [7]: 1.0 percentage
- inhibition percentage [8]: −10.4 percentage
- inhibition percentage [9]: −15.3 percentage
- inhibition percentage [10]: 0.9 percentage
- inhibition percentage [11]: −7.4 percentage
- inhibition percentage [12]: −1.1 percentage
- inhibition percentage [13]: 0.4 percentage
- inhibition percentage [14]: 5.9 percentage
- inhibition percentage [15]: 0.4 percentage
- inhibition percentage [16]: 10.9 percentage
- inhibition percentage [17]: −8.5 percentage
- inhibition percentage [18]: −10.2 percentage
- inhibition percentage [19]: 6.4 percentage
- inhibition percentage [20]: −0.6 percentage
- inhibition percentage [21]: −11.5 percentage
- inhibition percentage [22]: 15.1 percentage
- inhibition percentage [23]: −1.3 percentage
- inhibition percentage [24]: −12.5 percentage
- inhibition percentage [25]: 11.0 percentage
- inhibition percentage [26]: −4.6 percentage
- inhibition percentage [27]: −2.0 percentage
- inhibition percentage [28]: 7.0 percentage
Compound: CCc1ccc(CN(C)C(=O)CCc2nnc(CCc3c[nH]c4ccccc34)o2)nc1 (racemic) [Compound 1]
- total Rac levels [1]: no significant effect
- Rac activation ([1]; pull down): dose dependent reduction
- toxicity toward normal bone marrow cells [2]: did not exhibit toxicity
